Consider eleven compounds from ChEMBL document CHEMBL1201862, “PubChem BioAssay data set” (2004).

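Cells were grown in 96-well plates and exposed to each compound for 48 hours at five concentrations; endpoints were interpolated linearly between bracketing concentrations, or set to the highest concentration if not reached. The concentration for 50% growth inhibition is given as GI50.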 Activity calls are given as the source filed them. Rule as the data show it: active = GI50 up to about 1.1 µM and inactive = higher.

Among the test systems are MDA-N; HOP-92; IGROV-1; SK-MEL-5; KM12; OVCAR-8; MOLT-4; ACHN; HT-29; PC-3; SK-MEL-28; SF-295; A498; CAKI-1; SN12C; Hs-578T; T47D; COLO 205; NCI-H522; SR.
Common to all, as to assay: NCI tumour cell line growth inhibition, 48 h

Regarding `CN(CCNC(=O)c1cn(C)c2c1ccc1ccccc12)CCNC(=O)c1cn(C)c2c1ccc1ccccc12`, the GI50 with MDA-N is 2.22 µM (inactive); in the assay with HOP-92 it was 2.07 µM (inactive); with IGROV-1, 1.62 µM (inactive); in the assay on SK-MEL-5 it was 2.6 µM (inactive); with KM12 it was 1.79 µM (inactive); in the assay on OVCAR-8, 27.9 µM (inactive). For the same compound, the GI50 was 2.55 µM (inactive) with MOLT-4; 3.36 µM (inactive) in the assay on ACHN; 6.05 µM (inactive) in the assay with HT-29; 2.42 µM (inactive) with PC-3; 1.97 µM (inactive) with SK-MEL-28; 3.05 µM (inactive) in the assay on SF-295. For the same compound, the GI50 in the assay with A498 is 10.6 µM (inactive); with CAKI-1, 2.47 µM (inactive); with SN12C, 2.64 µM (inactive); in the assay with Hs-578T it was 2.18 µM (inactive).
Take `COc1ccc(/C=C(/c2ccc(OC)cc2)c2c(Cl)cc(Cl)c(/C(=C\c3ccc(OC)cc3)c3ccc(OC)cc3)c2/N=N/c2ccccc2)cc1`: the GI50 in the assay with T47D, in the assay with HOP-92, in the assay on IGROV-1, with SK-MEL-5, with KM12 and in the assay with OVCAR-8 was > 100 µM (inactive) throughout. For the same compound, the GI50 in the assay on MOLT-4 is 88.7 µM (inactive); with COLO 205, > 100 µM (inactive); in the assay with ACHN, 72.4 µM (inactive); with HT-29 it was > 100 µM (inactive); with PC-3 it was > 100 µM (inactive); in the assay with SK-MEL-28, > 100 µM (inactive). The GI50 with SF-295 was > 100 µM (inactive); in the assay with NCI-H522 it was > 100 µM (inactive); with A498 it was 98.2 µM (inactive); with CAKI-1, > 100 µM (inactive); in the assay on SN12C it was > 100 µM (inactive); in the assay with Hs-578T, > 100 µM (inactive).
For `NC(=O)CO/N=C1/C(=C2/C(=O)Nc3ccccc32)Nc2ccccc21`, the GI50 is 53 µM (inactive) in the assay on MDA-N; > 100 µM (inactive) with HOP-92; 0.395 µM (active) in the assay on IGROV-1; 1.49 µM (inactive) in the assay with SK-MEL-5; 0.247 µM (active) in the assay with KM12; 62.5 µM (inactive) with OVCAR-8. Further, the GI50 in the assay on MOLT-4 is 3.44 µM (inactive); with COLO 205, 1.86 µM (inactive); with ACHN it was 3.48 µM (inactive); in the assay with HT-29 it was 2.12 µM (inactive); in the assay with PC-3 it was > 100 µM (inactive); with SK-MEL-28, > 100 µM (inactive). The GI50 in the assay on SF-295 is > 100 µM (inactive); with NCI-H522, > 100 µM (inactive); in the assay with A498, > 100 µM (inactive); with CAKI-1, 0.247 µM (active); in the assay on SN12C, > 100 µM (inactive); in the assay on SR, 0.778 µM (active). In addition, the GI50 with Hs-578T was > 100 µM (inactive).
As for `CSc1csc(-c2ccc(-c3ccc(-c4cc(SC)cs4)s3)s2)c1`, the GI50 in the assay on MDA-N, with IGROV-1, in the assay on SK-MEL-5, with KM12, with MOLT-4 and with COLO 205 was > 100 µM (inactive) each time. The GI50 in the assay with ACHN, with HT-29, with PC-3, in the assay on SK-MEL-28, with SF-295 and in the assay on SN12C was > 100 µM (inactive) in each case. The GI50 with SR and in the assay on Hs-578T was > 100 µM (inactive) throughout.
In the case of `CN(C(=O)Cc1ccc(Cl)c(Cl)c1)[C@@H]1CCCC[C@H]1[N+]1(C)CC=CC1`, the GI50 in the assay on MDA-N, in the assay with T47D, in the assay on HOP-92, with IGROV-1, with SK-MEL-5 and in the assay with KM12 was > 100 µM (inactive) each time. The GI50 with OVCAR-8, in the assay with MOLT-4, in the assay with COLO 205, with ACHN, in the assay on HT-29 and in the assay on PC-3 was > 100 µM (inactive) each time. Further, the GI50 in the assay with SK-MEL-28, in the assay with SF-295, with NCI-H522, with A498, in the assay with CAKI-1 and in the assay with SN12C was > 100 µM (inactive) in each case. Further, in the assay on SR, the GI50 was > 100 µM (inactive).
With `CSCCCNC(=O)c1csc([C@@H](CSC)NC(=O)CCNC(=O)[C@@H](NC(=O)OCC(Br)(Br)Br)C(C)O)n1` (some centres undefined), the GI50 in the assay with MDA-N, with HOP-92, in the assay with IGROV-1, in the assay on SK-MEL-5, in the assay on KM12 and with OVCAR-8 was > 100 µM (inactive) in each case. Besides, the GI50 with MOLT-4, with COLO 205, in the assay with ACHN, with HT-29, in the assay on PC-3 and in the assay with SK-MEL-28 was > 100 µM (inactive) throughout. The GI50 in the assay with SF-295, in the assay with NCI-H522, in the assay with A498, in the assay on CAKI-1, with SN12C and in the assay with SR was > 100 µM (inactive) throughout. For the same compound, in the assay on Hs-578T, the GI50 was > 100 µM (inactive).
For the compound `CCOP(=O)(/C=C\n1cc(C)c(=O)[nH]c1=O)OCC`, the GI50 with MDA-N, in the assay with T47D, in the assay on IGROV-1, in the assay with SK-MEL-5, with KM12 and with OVCAR-8 was > 100 µM (inactive) in each case. Further, the GI50 in the assay on MOLT-4, in the assay on COLO 205, in the assay on ACHN, in the assay with HT-29, with PC-3 and in the assay on SK-MEL-28 was > 100 µM (inactive) throughout. The GI50 in the assay with SF-295 is > 100 µM (inactive); with NCI-H522 it was 12.1 µM (inactive); in the assay on A498, > 100 µM (inactive); with CAKI-1, > 100 µM (inactive); in the assay on SN12C, > 100 µM (inactive).
Take `CCCCCCCCCCCCCCCCCCOP1(=O)OCCO1`: the GI50 with MDA-N, in the assay with T47D, with HOP-92, with IGROV-1, in the assay with SK-MEL-5 and in the assay on KM12 was > 100 µM (inactive) in each case. Besides, the GI50 in the assay with OVCAR-8 is > 100 µM (inactive); in the assay with MOLT-4, 40.7 µM (inactive); in the assay with COLO 205, > 100 µM (inactive); with ACHN it was > 100 µM (inactive); with HT-29, > 100 µM (inactive); in the assay with PC-3, 22.8 µM (inactive). Moreover, the GI50 in the assay with SK-MEL-28 is > 100 µM (inactive); in the assay with SF-295, 28.5 µM (inactive); in the assay with NCI-H522 it was 54.6 µM (inactive); in the assay on A498, > 100 µM (inactive); in the assay with CAKI-1, > 100 µM (inactive); in the assay on SN12C, > 100 µM (inactive).
In the case of `c1ccc2c(c1)SCCCSCCSCCCS2`, the GI50 in the assay with MDA-N is > 100 µM (inactive); with T47D it was > 100 µM (inactive); with HOP-92, 48.9 µM (inactive); in the assay with IGROV-1, > 100 µM (inactive); in the assay on SK-MEL-5, > 100 µM (inactive); in the assay on KM12, > 100 µM (inactive). The GI50 in the assay with OVCAR-8, in the assay with MOLT-4, with COLO 205, in the assay on HT-29, with PC-3 and in the assay with SK-MEL-28 was > 100 µM (inactive) throughout. The GI50 in the assay with SF-295, with NCI-H522, in the assay on SN12C and in the assay on SR was > 100 µM (inactive) in each case.
Regarding `CN1CC[C@]2(c3cccc(O)c3)CC(=O)/C(=C/c3ccc(Cl)c(Cl)c3)[C@@H]1C2`, the GI50 in the assay on MDA-N is 0.552 µM (active); in the assay with HOP-92, 1.22 µM (inactive); in the assay on IGROV-1 it was 1.88 µM (inactive); in the assay on SK-MEL-5, 1.55 µM (inactive); with KM12, 0.575 µM (active); with OVCAR-8, 1.49 µM (inactive). For the same compound, the GI50 in the assay on MOLT-4 is 0.273 µM (active); with COLO 205, 1.6 µM (inactive); in the assay with ACHN it was 1.15 µM (inactive); in the assay with HT-29, 1.01 µM (active); in the assay on PC-3, 0.324 µM (active); in the assay with SK-MEL-28 it was 1.55 µM (inactive). Also, the GI50 in the assay on SF-295 was 1.52 µM (inactive); in the assay with A498, 1.63 µM (inactive); with CAKI-1 it was 1.08 µM (active); in the assay on SN12C, 1.04 µM (active); with SR, 0.281 µM (active); in the assay on Hs-578T it was 3.05 µM (inactive).
As to `CC(=O)C(C)C(=O)N1C(=O)N(C)C2(C)N(C)C(=O)NC12C` (centres undefined), the GI50 in the assay with MDA-N, in the assay with HOP-92, in the assay on IGROV-1, in the assay on SK-MEL-5, with KM12 and in the assay with COLO 205 was > 100 µM (inactive) each time. Moreover, the GI50 in the assay with ACHN, with HT-29, in the assay with SK-MEL-28, with SF-295, in the assay on NCI-H522 and in the assay on CAKI-1 was > 100 µM (inactive) throughout. Moreover, the GI50 with SN12C, with SR and in the assay on Hs-578T was > 100 µM (inactive) throughout.
